What was measured:
[1] = test system: cyclin E; assay: Western blot of cyclin E expression in vascular smooth muscle cells; format: cell-based, rat; conditions: 0.5 μM, compared with the control group, FIG. 4B
Procedure: (§1) For vascular smooth muscle cell cultivation, vascular smooth muscle cells were isolated from rat aorta and they were primarily cultured. The vascular smooth muscle cells were cultured and grown in a culture solution containing 20% fetal bovine serum (FBS) at 37° C. under 5% CO2. The cells obtained in this process were transferred to a new culture plate for experiments. The cells used in the experiments were initial cells which had been subcultured 4 to 7 times. In order to activate NQO1, the vascular smooth muscle cells, when the cell mass reached 80 to 90%, were cultured in a medium containing 0.5% fetal bovine serum for 24 hours to keep the cells in the resting state. Such cells were treated with the compound of Example 1 (hereinafter, referred to as Compound 1).
(§2) The vascular smooth muscle cells collected after reacting with Compound 1 were lysed in RIPA buffer (50 mM Tris-HCl, 150 mM NaCl, 5 mM EDTA, 1% NP-40, 1 mM PMSF, 1 mM […], and 1 mg/ml protease inhibitor) to isolate whole proteins. The isolated proteins of each sample were quantified. 25 μg of the proteins were mixed with a sample buffer and boiled for 5 minutes. The boiled proteins were cooled and subjected to electrophoresis on a sodium dodecyl sulfate polyacrylamide gel, thereby separating the proteins by their sizes. […]

[2] = test system: p21; assay: Western blot of p21 expression in vascular smooth muscle cells; format: cell-based, rat; conditions: 0.5 μM, FIG. 4A
Procedure: as §1, §2

[3] = test system: Acetyl-CoA carboxylase (ACC); assay: Western blot of phosphorylated ACC in vascular smooth muscle cells; format: cell-based, rat; conditions: 0.5 μM, compared with the control group, FIG. 3
Procedure: as §1
as §2, with “minutes.” for “minutes. The boiled proteins were cooled and subjected to electrophoresis on a sodium dodecyl sulfate polyacrylamide gel, thereby separating the proteins by their sizes.”
Primary cultures of vascular smooth muscle cells were kept in the resting state and then treated with 0.5 μM of Compound 1. […] Quantification was carried out using antibodies specific for phosphorylated AMPK and Acetyl-CoA carboxylase (ACC), and for β-actin. […]

[4] = test system: cyclin dependent kinase (CDK); assay: Western blot of CDK in vascular smooth muscle cells; format: cell-based, rat; conditions: 0.5 μM, FIG. 4B
Procedure: as §1, §2

[5] = test system: p53; assay: Western blot of p53 expression in vascular smooth muscle cells; format: cell-based, rat; conditions: 0.5 μM, FIG. 4A
Procedure: as §1, §2

[6] = test system: SD rats; assay: Intimal hyperplasia after balloon angioplasty (H&E staining); format: in vivo, rat; conditions: 100 mg/kg in diet
Procedure: SD rats were used for performing balloon angioplasty. Animals were housed in a breeding room maintained at a constant temperature of 22±2° C. and a 12-h light/dark (UD) cycle. The animals were divided into two groups, i.e., a control group with administration of general diet and an experiment group with administration of 100 mg/kg of Compound 1, having 4 animals in each group. The 4 animals in each group were raised in separate cages for each animal for 4 weeks, during which experiments were carried out. The animals were raised for 2 weeks before performing balloon angioplasty and 2 weeks after performing balloon angioplasty while continuing the dietary intake of the general diet and Compound 1 diet. Thereafter, their aortas were isolated to confirm hyoerplasia by means of H&E (hematoxylin and eosin) staining.
14 days after performing balloon angioplasty, the carotid artery was extracted from a rat. After staining the carotid artery by H&E staining, vessel intimal hyperplasia was observed. The results are presented in FIG. 6. a is a control group, b is a vessel intima after performing balloon angioplasty in the general dietary group, c is a vessel intima after performing balloon angioplasty in the 100 mg/kg of Compound 1 administration group, and d is a control group in the 100 mg/kg of Compound 1 administration group, without performing balloon angioplasty.

[7] = test system: cyclin B; assay: Western blot of cyclin B expression in vascular smooth muscle cells; format: cell-based, rat; conditions: 0.5 μM, compared with the control group, FIG. 4B
Procedure: as §1, §2

[8] = test system: cyclin D; assay: Western blot of cyclin D expression in vascular smooth muscle cells; format: cell-based, rat; conditions: 0.5 μM, compared with the control group, FIG. 4B
Procedure: as §1, §2

[9] = test system: rats; assay: Lipogenesis in vessels (Oil Red O staining of aortic valve and abdominal aorta); format: in vivo, rat
Description: The animals were killed to isolate their hearts and abdominal aortas, and they were fixed in 4% formalin, respectively. The fixed heart tissue was immersed in an isotonic sucrose solution, and then stored in a freezer by embedding in an OCT compound. Meanwhile, the fixed abdominal aorta was incised lengthwise and prepared such that the internal vessel was exposed. The frozen heart tissue was sectioned into a thickness of 20 μm and attached onto a coating slide, while the abdominal aorta was immersed in an Oil Red O solution to perform Oil Red O staining, and they were observed.
Rats administered with 25 mg/kg and 50 mg/kg of Compound 1, respectively, for 4 weeks had been killed, and their hearts and abdominal aortas were extracted to prepare frozen sections. The prepared sections were stained with Oil Red O, and a degree of lipid accumulation on the inner vessel wall and aortic valve was compared/observed.
A (upper part of FIG. 7) is an aortic valve and B (bottom part of FIG. 7) is an abdominal aorta. The experiments were repeated three times to confirm the results.

[10] = test system: AMPK; assay: Western blot of phosphorylated AMPK in vascular smooth muscle cells; format: cell-based, rat; conditions: 0.5 μM
Procedure: as §1
The vascular smooth muscle cells collected after reacting with Compound 1 were lysed in RIPA buffer (50 mM Tris-HCl, 150 mM NaCl, 5 mM EDTA, 1% NP-40, 1 mM PMSF, 1 mM […], and 1 mg/ml protease inhibitor) to isolate whole proteins. The isolated proteins of each sample were quantified. 25 μg of the proteins were mixed with a sample buffer and boiled for 5 minutes. The boiled proteins were cooled and subjected to electrophoresis on a sodium dodecyl sulfate polyacrylamide gel, thereby separating the proteins by their sizes. These proteins were again transferred to PVDF membrane and immunoreacted with antibodies against pAMPK, pACC, p53, p21, CDK and pRb to confirm the protein expression. In addition, in order to verify whether an equal amount of protein was used, the proteins were reacted with anti-β-actin.
Primary cultures of vascular smooth muscle cells were kept in the resting state and then treated with 0.5 μM of Compound 1. After reacting them for a predetermined period of time, the cells were collected to perform western blot. Quantification was carried out using antibodies specific for phosphorylated AMPK and Acetyl-CoA carboxylase (ACC), and for β-actin. The results were confirmed through three or more repeating experiments.

[11] = test system: vascular smooth muscle cells; assay: Vascular smooth muscle cell proliferation (PDGF-induced, WST cell counting kit); format: cell-based, rat
Procedure: as §1, with “Such cells were treated with the compound of Example 1 (hereinafter, referred to as Compound 1).” left out
Primary cultures of vascular smooth muscle cells were seeded onto 96-well plates, cultured to reach cell mass of 70%, and transferred and again cultured in a medium containing 0.5% fetal bovine serum for 24 hours. […] After further reacting for 4 hours, absorbencies were measured at 450 nm using an ELISA reader to examine the cell proliferation rate.
In order to determine the effects of Compound 1 on vascular smooth muscle cell proliferation, the cells cultured in a 96-well plate were kept in the resting state, followed by pre-treating them with Compound 1 by varying the concentration, and by reacting them with PDGF for 48 hours. The number of living cells was counted using a WST cell counting kit. […]

[12] = test system: NQO1; assay: RT-PCR of NQO1 expression in vascular smooth muscle cells; format: cell-based, rat; conditions: 0.5 μM, compared with the control group, FIG. 2
Procedure: A study was conducted to investigate effects of Compound 1 on the expression of NQ01 as in the following. Primary cultures of vascular smooth muscle cells were kept in the resting state and then treated with 0.5 μM of Compound 1. After reacting them for a predetermined period of time, RNA was extracted from the cells using trizol. Thereafter, DNA was amplified using NQO1 primer and then subjected to electrophoresis to confirm the expression level of NQO1.

[13] = test system: vascular smooth muscle cells; assay: Cell cycle analysis by FACS (PI staining); format: cell-based, rat; conditions: 0.5 μM Compound 1 + PDGF and insulin, 48 hours (PDGF and insulin only: 57%), FIG. 5C
Procedure: as §1
FACS was used for cell cycle analysis. The vascular smooth muscle cells incubated in a medium containing 0.5% fetal bovine serum for 24 hours were pretreated with Compound 1 for 2 hours. The cells were treated with PDGF and insulin to induce cell proliferation and reacted for 48 hours. Thereafter, the cells were collected and passed through fixation process, followed by nuclear staining with propidium iodide (PI). Then, the cell cycle was analyzed using FACS.
Primary cultures of vascular smooth muscle cells were treated with 0.5 μM of Compound 1, followed by reacting with PDGF and insulin for 48 hours. […]

SMILES: CC1(C)CCC2=C(O1)c1ccccc1C(=O)C2=O [Compound 1, β-lapachone]
- expression level of cyclin E [1]: significantly low
- expression of p21 [2]: increased in a great amount
- ACC phosphorylation [3]: decreased
- CDK activation [4]: activated through phosphorylation
- expression level of p53 [5]: did not increase largely
- intima/media ratio ([6]; 14 days after balloon angioplasty (general dietary group: 2.5)): 1
- intimal hyperplasia in the vessel ([6]; 14 days after balloon angioplasty, FIG. 6 c): low rate of intimal hyperplasia
- expression level of cyclin B [7]: significantly low
- expression level of cyclin D [8]: significantly low
- lipogenesis in aortic valve and abdominal aorta ([9]; 25 mg/kg and 50 mg/kg for 4 weeks, Oil Red O, FIG. 7): inhibited
- blood flow level in the heart and abdominal aorta ([9]; about 50 mg/kg for 4 weeks): approximately the same as that of the normal rats
- time after treatment at which phosphorylated AMPK could be observed [10]: 1 h
- time for which phosphorylated AMPK lasted [10]: 6 h
- AMPK phosphorylation ([10]; compared with the control group, FIG. 3): increased
- concentration dependence of the reduction in the number of vascular smooth muscle cells ([11]; Compound 1 pre-treatment at varying concentration, PDGF 48 hours): concentration-dependent
- number of vascular smooth muscle cells (living cells) ([11]; PDGF + Compound 1 compared with PDGF only, 48 hours, FIG. 1): significantly low
- expression level of NQO1 [12]: significantly higher
- G1 phase (percentage of cells) [13]: 62%
